Earlier results as cited in paper PMC4108727 (Angewandte Chemie (International ed. in English), 2013).

Biological target: MTH1 (Homo sapiens, UniProt P36639)
Settings: substrate of MTH1; cited from earlier work

Row | SMILES | Km
1 | Nc1ncnc2c1[nH]c(=O)n2[C@H]1C[C@H](O)[C@@H](COP(=O)(O)OP(=O)(O)OP(=O)(O)O)O1 [8-oxo-dATP] | 13.9 µM
2 | Nc1nc2c([nH]c(=O)n2[C@H]2C[C@H](O)[C@@H](COP(=O)(O)OP(=O)(O)OP(=O)(O)O)O2)c(=O)[nH]1 [8-oxo-dGTP] | 15.2 µM
